Results on 18 molecules are retold here after patent publication US10717716B2, “1,3,4-oxadiazole derivative compounds as histone deacetylase 6 inhibitor, and the pharmaceutical composition comprising the same” (Chong Kun Dang Pharmaceutical Corp., priority 2015, dated 2020).

In one assay the target is T1, human recombinant HDAC1 (Homo sapiens, UniProt Q13547).
T1 construct: purchased Enzo Life Science BML-SE456
As to the kind of experiment: HDAC1 enzyme activity inhibition assay (HDAC Fluorimetric Drug Discovery Kit). It is filed as biochemical. To be noted: human recombinant HDAC1, Fluor de Lys substrate 10 μM, 30° C. 60 minutes. The gist of the method:
(§1)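 Human recombinant HDAC1 or HDAC6 (0.3 μg) reacted with 10 μM Fluor de Lys-SIRT1 substrate and 5-fold compound dilutions for 60 min at 30 °C. Developer II added for 30 min, fluorescence read at Ex 360/Em 460; IC50 calculated from the readings.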

Another assay addresses T2, human recombinant HDAC6 (Homo sapiens, UniProt Q9UBN7).
T2 construct: purchased Calbiochem 382180
T2 sequence (Q9UBN7 1-1215): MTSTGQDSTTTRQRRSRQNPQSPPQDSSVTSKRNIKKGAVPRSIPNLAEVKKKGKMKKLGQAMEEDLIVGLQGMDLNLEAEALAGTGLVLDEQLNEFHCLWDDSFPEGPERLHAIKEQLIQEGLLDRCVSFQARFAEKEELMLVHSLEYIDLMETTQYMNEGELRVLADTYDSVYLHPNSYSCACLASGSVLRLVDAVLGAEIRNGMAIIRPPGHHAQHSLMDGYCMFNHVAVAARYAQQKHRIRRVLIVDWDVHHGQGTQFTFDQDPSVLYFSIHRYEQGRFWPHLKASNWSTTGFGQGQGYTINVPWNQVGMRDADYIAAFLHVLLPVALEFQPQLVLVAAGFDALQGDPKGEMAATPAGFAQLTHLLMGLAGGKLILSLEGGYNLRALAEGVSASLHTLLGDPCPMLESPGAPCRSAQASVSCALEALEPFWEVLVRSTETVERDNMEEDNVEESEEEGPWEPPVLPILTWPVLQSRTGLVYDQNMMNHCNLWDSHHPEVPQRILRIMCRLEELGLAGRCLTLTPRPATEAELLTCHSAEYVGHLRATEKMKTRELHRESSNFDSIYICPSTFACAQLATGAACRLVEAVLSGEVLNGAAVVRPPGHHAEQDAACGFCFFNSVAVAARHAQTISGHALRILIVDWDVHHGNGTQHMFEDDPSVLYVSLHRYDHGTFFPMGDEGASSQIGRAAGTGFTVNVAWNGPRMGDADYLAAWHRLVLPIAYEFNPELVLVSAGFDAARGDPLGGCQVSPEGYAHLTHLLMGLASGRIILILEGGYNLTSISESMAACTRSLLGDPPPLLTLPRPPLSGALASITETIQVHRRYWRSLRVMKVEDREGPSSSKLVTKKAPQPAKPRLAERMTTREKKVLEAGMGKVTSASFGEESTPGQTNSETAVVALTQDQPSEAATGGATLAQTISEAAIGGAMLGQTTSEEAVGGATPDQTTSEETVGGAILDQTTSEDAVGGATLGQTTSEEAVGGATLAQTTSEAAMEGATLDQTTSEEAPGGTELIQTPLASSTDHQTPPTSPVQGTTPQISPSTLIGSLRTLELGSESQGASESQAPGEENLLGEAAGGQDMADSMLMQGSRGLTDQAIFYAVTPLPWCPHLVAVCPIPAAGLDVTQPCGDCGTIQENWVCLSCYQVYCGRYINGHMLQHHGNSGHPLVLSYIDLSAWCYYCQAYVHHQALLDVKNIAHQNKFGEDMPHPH
The experiment in a line: HDAC6 enzyme activity inhibition assay (HDAC Fluorimetric Drug Discovery Kit). Format: biochemical. To be noted: for HDAC6 selectivity (fold): HDAC6 over HDAC1; for IC50: human recombinant HDAC6, same protocol as HDAC1, read-out: HDAC6. The gist of the method:
as §1

T1 sequence (Q13547 whole entry): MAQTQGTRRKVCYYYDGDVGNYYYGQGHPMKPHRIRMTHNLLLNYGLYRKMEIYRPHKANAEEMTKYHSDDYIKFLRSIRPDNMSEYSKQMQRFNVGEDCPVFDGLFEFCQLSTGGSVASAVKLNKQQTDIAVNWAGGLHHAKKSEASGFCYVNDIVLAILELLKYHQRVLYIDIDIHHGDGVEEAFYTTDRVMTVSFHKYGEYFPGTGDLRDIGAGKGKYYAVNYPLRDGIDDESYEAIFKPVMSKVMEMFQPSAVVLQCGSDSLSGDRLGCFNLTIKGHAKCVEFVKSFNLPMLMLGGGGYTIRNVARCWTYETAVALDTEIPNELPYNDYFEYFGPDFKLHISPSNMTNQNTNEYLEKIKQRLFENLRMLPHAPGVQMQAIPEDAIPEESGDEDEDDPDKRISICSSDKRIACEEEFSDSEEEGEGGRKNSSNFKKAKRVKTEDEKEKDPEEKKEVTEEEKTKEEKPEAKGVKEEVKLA

Take `CCN1CCN(C(=O)N(Cc2ccc(-c3nnc(C(F)(F)F)o3)cn2)c2ccc(F)cc2)CC1` [Compound 21870, 4-Ethyl-N-(4-fluorophenyl)-N-((5-(5-(trifluoromethyl)-1,3,4-oxadiazol-2-yl)pyridin-2-yl)methyl)piperazine-1-carboxamide]: the IC50 at human recombinant HDAC1 came to 45.1 µM. At human recombinant HDAC6, the “HDAC6 selectivity (fold)” value is reported as 400 fold and the IC50 was determined as 0.113 µM.
For `CCN1CCN(C(=O)N(Cc2ccc(-c3nnc(C(F)(F)F)o3)cc2)c2cccc(OC)c2)CC1` [Compound 21871, 4-Ethyl-N-(3-methoxyphenyl)-N-(4-(5-(trifluoromethyl)-1,3,4-oxadiazol-2-yl)benzyl)piperazine-1-carboxamide] the same measures were 9.13 µM, 28 fold and 0.321 µM.
For `CCN1CCN(C(=O)N(Cc2ccc(-c3nnc(C(F)(F)F)o3)cc2F)c2cccc(OC)c2)CC1` [Compound 21872, 4-Ethyl-N-(2-fluoro-4-(5-(trifluoromethyl)-1,3,4-oxadiazol-2-yl)benzyl)-N-(3-methoxyphenyl)piperazine-1-carboxamide], the figures for the IC50 at human recombinant HDAC1 and at human recombinant HDAC6 were 9.43 µM and 0.249 µM, respectively. Moreover, the “HDAC6 selectivity (fold)” value on human recombinant HDAC6 stood at 38 fold.
Consider `CCN1CCN(C(=O)N(Cc2ccc(-c3nnc(C(F)(F)F)o3)cn2)c2cccc(OC)c2)CC1` [Compound 21873, 4-Ethyl-N-(3-methoxyphenyl)-N-((5-(5-(trifluoromethyl)-1,3,4-oxadiazol-2-yl)pyridin-2-yl)methyl)piperazine-1-carboxamide], for which the IC50 at human recombinant HDAC1 is 14.9 µM. At human recombinant HDAC6, the “HDAC6 selectivity (fold)” value is 55 fold and the IC50 is 0.269 µM.
In the same order, the values of `CCN1CCN(C(=O)N(Cc2ccc(-c3nnc(C(F)(F)F)o3)cc2)c2ccc(OC)cc2)CC1` [Compound 21874, 4-Ethyl-N-(4-methoxyphenyl)-N-(4-(5-(trifluoromethyl)-1,3,4-oxadiazol-2-yl)benzyl)piperazine-1-carboxamide] are 6.17 µM, 20 fold and 0.308 µM.
For the molecule `CCN1CCN(C(=O)N(Cc2ccc(-c3nnc(C(F)(F)F)o3)cc2F)c2ccc(OC)cc2)CC1` [Compound 21875, 4-Ethyl-N-(2-fluoro-4-(5-(trifluoromethyl)-1,3,4-oxadiazol-2-yl)benzyl)-N-(4-methoxyphenyl)piperazine-1-carboxamide], the IC50 on human recombinant HDAC1 is 9 µM. Further, on human recombinant HDAC6, the “HDAC6 selectivity (fold)” value came to 23 fold and the IC50 turned out to be 0.386 µM.
In the same order, the values of `CCN1CCN(C(=O)N(Cc2ccc(-c3nnc(C(F)(F)F)o3)cn2)c2ccc(OC)cc2)CC1` [Compound 21876, 4-Ethyl-N-(4-methoxyphenyl)-N-((5-(5-(trifluoromethyl)-1,3,4-oxadiazol-2-yl)pyridin-2-yl)methyl)piperazine-1-carboxamide] are 11.7 µM, 46 fold and 0.255 µM.
As for `CCN1CCN(C(=O)N(Cc2ccc(-c3nnc(C(F)F)o3)cc2)c2cccc(Cl)c2)CC1` [Compound 21877, N-(3-Chlorophenyl)-N-(4-(5-(difluoromethyl)-1,3,4-oxadiazol-2-yl)benzyl)-4-ethylpiperazine-1-carboxamide], the IC50 on human recombinant HDAC1 was 65 µM. On human recombinant HDAC6, the “HDAC6 selectivity (fold)” value was found to be 1424 fold and the IC50 stood at 0.046 µM.
For `CCN1CCN(C(=O)N(Cc2ccc(-c3nnc(C(F)F)o3)cc2F)c2cccc(Cl)c2)CC1` [Compound 21878, N-(3-Chlorophenyl)-N-(4-(5-(difluoromethyl)-1,3,4-oxadiazol-2-yl)-2-fluorobenzyl)-4-ethylpiperazine-1-carboxamide] the same measures were 21.5 µM, 522 fold and 0.041 µM.
For `CCN1CCN(C(=O)N(Cc2ccc(-c3nnc(C(F)F)o3)cn2)c2cccc(Cl)c2)CC1` [Compound 21879, N-(3-Chlorophenyl)-N-((5-(5-(difluoromethyl)-1,3,4-oxadiazol-2-yl)pyridin-2-yl)methyl)-4-ethylpiperazine-1-carboxamide] the same measures were 27.9 µM, 1064 fold and 0.026 µM.
In the same order, the values of `CCN1CCN(C(=O)N(Cc2ccc(-c3nnc(C(F)F)o3)cc2)c2ccc(Cl)cc2)CC1` [Compound 21880, N-(4-Chlorophenyl)-N-(4-(5-(difluoromethyl)-1,3,4-oxadiazol-2-yl)benzyl)-4-ethylpiperazine-1-carboxamide] are 44.4 µM, 467 fold and 0.095 µM.
As to `CCN1CCN(C(=O)N(Cc2ccc(-c3nnc(C(F)F)o3)cc2)c2ccc(OC)cc2)CC1` [Compound 21892, N-(4-(5-(Difluoromethyl)-1,3,4-oxadiazol-2-yl)benzyl)-4-ethyl-N-(4-methoxyphenyl)piperazine-1-carboxamide], the IC50 at human recombinant HDAC1 worked out at 48.7 µM. Also, at human recombinant HDAC6, the “HDAC6 selectivity (fold)” value was determined as 548 fold and the IC50 is 0.089 µM.
For `CCN1CCN(C(=O)N(Cc2ccc(-c3nnc(C(F)F)o3)cc2F)c2ccc(OC)cc2)CC1` [Compound 21893, N-(4-(5-(Difluoromethyl)-1,3,4-oxadiazol-2-yl)-2-fluorobenzyl)-4-ethyl-N-(4-methoxyphenyl)piperazine-1-carboxamide] the same measures were 37.6 µM, 640 fold and 0.059 µM.
For `CCN1CCN(C(=O)N(Cc2ccc(-c3nnc(C(F)F)o3)cn2)c2ccc(OC)cc2)CC1` [Compound 21894, N-((5-(5-(Difluoromethyl)-1,3,4-oxadiazol-2-yl)pyridin-2-yl)methyl)-4-ethyl-N-(4-methoxyphenyl)piperazine-1-carboxamide] the same measures were 76.3 µM, 1588 fold and 0.048 µM.
For `O=C(N1CCS(=O)(=O)CC1)N(Cc1ccc(-c2nnc(C(F)F)o2)cc1F)c1ccc(CN2CCN(C3COC3)CC2)cc1` [Compound 21896, N-(4-(5-(difluoromethyl)-1,3,4-oxadiazol-2-yl)-2-fluorobenzyl)-N-(4-((4-(oxetan-3-yl)piperazin-1-yl)methyl)phenyl)thiomorpholine-4-carboxamide 1,1-dioxide] the same measures were 28.5 µM, 82 fold and 0.346 µM.
For the molecule `CC(C)(C)CN1CCN(Cc2ccc(N(Cc3ccc(-c4nnc(C(F)(F)F)o4)cc3F)C(=O)N3CCS(=O)(=O)CC3)cc2)CC1` [Compound 21897, N-(2-fluoro-4-(5-(trifluoromethyl)-1,3,4-oxadiazol-2-yl)benzyl)-N-(4-((4-neopentylpiperazin-1-yl)methyl)phenyl)thiomorpholine-4-carboxamide 1,1-dioxide], the IC50 turned out to be 68.1 µM at human recombinant HDAC1 and 0.487 µM on human recombinant HDAC6. The “HDAC6 selectivity (fold)” value at human recombinant HDAC6 is listed as 140 fold.
In the same order, the values of `O=C(N1CCS(=O)(=O)CC1)N(Cc1ccc(-c2nnc(C(F)(F)F)o2)cc1F)c1ccc(CN2CCN(C3COC3)CC2)cc1` [Compound 21898, N-(2-fluoro-4-(5-(trifluoromethyl)-1,3,4-oxadiazol-2-yl)benzyl)-N-(4-((4-(oxetan-3-yl)piperazin-1-yl)methyl)phenyl)thiomorpholine-4-carboxamide 1,1-dioxide] are 40.6 µM, 0.247 µM and 164 fold.
For `CCN1CCN(Cc2ccc(N(Cc3ccc(-c4nnc(C(F)F)o4)cc3F)C(=O)N3CCS(=O)(=O)CC3)cc2)CC1` [Compound 21899, N-(4-(5-(difluoromethyl)-1,3,4-oxadiazol-2-yl)-2-fluorobenzyl)-N-(4-((4-ethylpiperazin-1-yl)methyl)phenyl)thiomorpholine-4-carboxamide 1,1-dioxide] the same measures were 75.7 µM, 0.055 µM and 1364 fold.
